≈ marks a conversion by molar mass, not a printed value. Positions of bridges follow the written chain, without caps; N, C: chain ends. Non-standard residues stand in square brackets, D forms with d. Residues, ends and D or L forms follow the SMILES beside them. *: point of attachment. Benzoyl(4-Ph) = O=C(c1ccc(-c2ccccc2)cc1)*; Dab = NCC[C@H](N)C(=O)O

This is an account of results in ChEMBL document CHEMBL5537158, “Polymyxins with Potent Antibacterial Activity against Colistin-Resistant Pathogens: Fine-Tuning Hydrophobicity with Unnatural Amino Acids” (J Med Chem, 2024).

Type in all cases: functional
Test [1] deals with Escherichia coli. Kind of test: Antibacterial activity against […] Escherichia coli clinical isolate 2 assessed as bacterial growth inhibition incubated for 20 hrs by broth microdilution method. In general terms: Dilution methods test growth across graded concentrations, often in twofold steps.
Test [2] relates to Klebsiella pneumoniae. Kind of test: Antimicrobial activity against colistin resistant Klebsiella pneumoniae clinical isolate 1 assessed as bacterial growth inhibition incubated for 20 hrs by broth microdilution method.
The test system of test [3] is Pseudomonas aeruginosa. Kind of test: Antimicrobial activity against Pseudomonas aeruginosa ATCC 27853 assessed as bacterial growth inhibition incubated for 20 hrs by broth microdilution method.
Test [4] has as its system Escherichia coli. Kind of test: Antimicrobial activity against […] Escherichia coli harboring mcr-1 assessed as bacterial growth inhibition incubated for 20 hrs by broth microdilution method.
Test [5] has as its system Escherichia coli. Kind of test: Antibacterial activity against […] Escherichia coli clinical isolate 1 assessed as bacterial growth inhibition incubated for 20 hrs by broth microdilution method.
In test [6] the test system is Pseudomonas aeruginosa. Kind of test: Antimicrobial activity against colistin resistant Pseudomonas aeruginosa clinical isolate 1 assessed as bacterial growth inhibition incubated for 20 hrs by broth microdilution method.
Test [7] relates to Escherichia coli. Kind of test: Antibacterial activity against […] Escherichia coli ATCC 25922 assessed as bacterial growth inhibition incubated for 20 hrs by broth microdilution method.
Test [8] deals with Acinetobacter baumannii. Kind of test: Antimicrobial activity against colistin resistant Acinetobacter baumannii clinical isolate 3 assessed as bacterial growth inhibition incubated for 20 hrs by broth microdilution method.
Test [9] deals with Klebsiella pneumoniae. Kind of test: Antimicrobial activity against colistin resistant Klebsiella pneumoniae clinical isolate 3 assessed as bacterial growth inhibition incubated for 20 hrs by broth microdilution method.
Test [10] has as its system Klebsiella pneumoniae. Kind of test: Antimicrobial activity against colistin resistant Klebsiella pneumoniae clinical isolate 2 assessed as bacterial growth inhibition incubated for 20 hrs by broth microdilution method.
In test [11] the test system is Pseudomonas aeruginosa. Kind of test: Potency index, ratio of colistin MIC to test compound MIC for antibacterial activity against colistin resistant Pseudomonas aeruginosa clinical isolate 1.
Test [12] has as its system Pseudomonas aeruginosa. Kind of test: Potency index, ratio of polymyxin B MIC to test compound MIC for antibacterial activity against colistin resistant Pseudomonas aeruginosa clinical isolate 1.
Test [13] has as its system Pseudomonas aeruginosa. Kind of test: Antimicrobial activity against colistin resistant Pseudomonas aeruginosa 7197/19 assessed as bacterial growth inhibition incubated for 20 hrs by broth microdilution method.
Test [14] concerns Klebsiella pneumoniae. Kind of test: Antimicrobial activity against colistin resistant Klebsiella pneumoniae clinical isolate 6 assessed as bacterial growth inhibition incubated for 20 hrs by broth microdilution method.
Test [15] has as its system Acinetobacter baumannii. Kind of test: Antimicrobial activity against colistin resistant Acinetobacter baumannii ATCC 19606 assessed as bacterial growth inhibition incubated for 20 hrs by broth microdilution method.
The test system of test [16] is Klebsiella pneumoniae. Kind of test: Antimicrobial activity against colistin resistant Klebsiella pneumoniae ATCC 13883 assessed as bacterial growth inhibition incubated for 20 hrs by broth microdilution method.
The test system of test [17] is Acinetobacter baumannii. Kind of test: Antimicrobial activity against colistin resistant Acinetobacter baumannii ATCC 3658/17 assessed as bacterial growth inhibition incubated for 20 hrs by broth microdilution method.
Test [18] has as its system Klebsiella pneumoniae. Kind of test: Antimicrobial activity against Klebsiella pneumoniae ATCC 13883 assessed as bacterial growth inhibition incubated for 20 hrs by broth microdilution method.
Test [19] deals with Escherichia coli. Kind of test: Antibacterial activity against […] Escherichia coli clinical isolate 3 assessed as bacterial growth inhibition incubated for 20 hrs by broth microdilution method.
For test [20], the system named is Klebsiella pneumoniae. Kind of test: Antimicrobial activity against colistin resistant Klebsiella pneumoniae clinical isolate 5 assessed as bacterial growth inhibition incubated for 20 hrs by broth microdilution method.
For test [21], the system named is Acinetobacter baumannii. Kind of test: Antimicrobial activity against Acinetobacter baumannii ATCC 19606 assessed as bacterial growth inhibition incubated for 20 hrs by broth microdilution method.
Test [22] relates to Escherichia coli. Kind of test: Antibacterial activity against Escherichia coli ATCC 25922 assessed as bacterial growth inhibition incubated for 20 hrs by broth microdilution method.
Test [23] relates to Acinetobacter baumannii. Kind of test: Antimicrobial activity against colistin resistant Acinetobacter baumannii clinical isolate 4 assessed as bacterial growth inhibition incubated for 20 hrs by broth microdilution method.
The test system of test [24] is Acinetobacter baumannii. Kind of test: Antimicrobial activity against colistin resistant Acinetobacter baumannii clinical isolate 1 assessed as bacterial growth inhibition incubated for 20 hrs by broth microdilution method.
In test [25] the test system is Acinetobacter baumannii. Kind of test: Antimicrobial activity against colistin resistant Acinetobacter baumannii clinical isolate 2 assessed as bacterial growth inhibition incubated for 20 hrs by broth microdilution method.
Test [26] relates to Klebsiella pneumoniae. Kind of test: Antimicrobial activity against colistin resistant Klebsiella pneumoniae clinical isolate 4 assessed as bacterial growth inhibition incubated for 20 hrs by broth microdilution method.
Test [27] deals with Pseudomonas aeruginosa. Kind of test: Antimicrobial activity against Pseudomonas aeruginosa PAO1 assessed as bacterial growth inhibition incubated for 20 hrs by broth microdilution method.

Consider `CC[C@H](C)[C@@H]1NC(=O)[C@@H](CC(C)C)NC(=O)[C@H](CCN)NC(=O)[C@@H](NC(=O)[C@@H](CO)NC(=O)[C@@H](NC(=O)[C@H](CCN)NC(=O)c2ccc(-c3ccccc3)cc2)[C@@H](C)O)CCNC(=O)[C@H](CC(C)C)NC(=O)[C@H](CCN)NC(=O)[C@H](CCN)NC1=O` ({Benzoyl(4-Ph)}-[Dab]T[dS][Dab][Dab][dL]I[Dab][Dab]L; lactam 4-C), for which the MIC in test [1] is 4 µg/mL (≈ 3.31 µM); in [2] it was 1 µg/mL (≈ 0.827 µM); in test [3], 0.5 µg/mL (≈ 0.414 µM); in test [4] it was 4 µg/mL (≈ 3.31 µM); in test [5], 4 µg/mL (≈ 3.31 µM); in test [6], 2 µg/mL (≈ 1.65 µM). Moreover, the MIC in test [7] was determined as 2 µg/mL (≈ 1.65 µM); in test [8], 4 µg/mL (≈ 3.31 µM); in test [9], 2 µg/mL (≈ 1.65 µM); in test [10], 1 µg/mL (≈ 0.827 µM); in [13], 1 µg/mL (≈ 0.827 µM); in test [14], 0.5 µg/mL (≈ 0.414 µM). Further, the MIC in [15] is 0.5 µg/mL (≈ 0.414 µM); in test [16], 2 µg/mL (≈ 1.65 µM); in test [17], 1 µg/mL (≈ 0.827 µM); in test [18], 2 µg/mL (≈ 1.65 µM); in test [19], 2 µg/mL (≈ 1.65 µM); in test [20], 1 µg/mL (≈ 0.827 µM). Also, the Ratio in test [11] and in test [12] was 2 throughout.

As for POLYMYXIN B, the minimum inhibitory concentration (MIC) in test [21] is 0.25 µg/mL; in [1], 2 µg/mL; in test [2] it was > 16 µg/mL; in test [3], 0.25 µg/mL; in [4], 2 µg/mL; in test [5], 2 µg/mL. The MIC in test [6] was found to be 4 µg/mL; in [7], 0.125 µg/mL; in [22], 0.25 µg/mL; in [8], 8 µg/mL; in test [23], 16 µg/mL; in test [9] it was 4 µg/mL. The MIC in [10] is 8 µg/mL; in test [24], > 16 µg/mL; in test [25], > 16 µg/mL; in test [13], 8 µg/mL; in test [14], 16 µg/mL; in [15], 0.125 µg/mL. Moreover, the MIC worked out at 16 µg/mL in [26]; 16 µg/mL in test [16]; 8 µg/mL in [17]; 0.5 µg/mL in test [18]; 4 µg/mL in test [19]; 0.25 µg/mL in test [27]. The MIC in test [20] is > 16 µg/mL.

For the compound `CCCCCCCC(=O)N[C@@H](CCN)C(=O)N[C@H](C(=O)N[C@@H](CCN)C(=O)N[C@H]1CCNC(=O)[C@H]([C@@H](C)O)NC(=O)[C@H](CCN)NC(=O)[C@H](CCN)NC(=O)[C@H](CC(C)C)NC(=O)[C@@H](Cc2ccc(Br)cc2)NC(=O)[C@H](CCN)NC1=O)[C@@H](C)O`, the MIC in [1] was found to be 2 µg/mL (≈ 1.58 µM); in test [2], 16 µg/mL (≈ 12.6 µM); in test [4], 1 µg/mL (≈ 0.788 µM); in test [5] it was 2 µg/mL (≈ 1.58 µM); in [6], 2 µg/mL (≈ 1.58 µM); in test [7] it was 0.125 µg/mL (≈ 0.0986 µM). In addition, the MIC in test [22] is < 0.125 µg/mL; in [8], 2 µg/mL (≈ 1.58 µM); in test [23] it was 2 µg/mL (≈ 1.58 µM); in test [24] it was 8 µg/mL (≈ 6.31 µM); in test [13] it was 0.125 µg/mL (≈ 0.0986 µM); in test [26], 16 µg/mL (≈ 12.6 µM). Moreover, the MIC came to 16 µg/mL (≈ 12.6 µM) in [16], 0.125 µg/mL (≈ 0.0986 µM) in test [18], 2 µg/mL (≈ 1.58 µM) in [19] and 0.125 µg/mL (≈ 0.0986 µM) in [27]. For the same compound, the Ratio in [12] was found to be 2.

A word on the MIC: it is the lowest concentration that inhibits growth of the organism.
